One assay addresses human TRPA1 (Homo sapiens (Human), UniProt O75762). Description: In vitro inhibition of human TRPA1, whole cell patch configuration. The class given is cell-based. Conditions: current activation 10 μM AITC, tested concentrations 320 pM to 3.2 μM, read-out: hTRPA1 IC50. The gist of the method: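 Whole-cell patch clamp, bath 150 mM NaCl, 10 mM HEPES, 1 mM EGTA, 3 mM MgCl2, pH 7.4 (sometimes 2 mM CaCl2, 1 mM MgCl2). Currents recorded continuously at −60 mV or by 400 ms ramps from −40 mV holding every 4 s; inward/outward currents taken at −80/80 mV, with controlled-temperature focal perfusion.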

Assay [1] deals with formalin-induced pain behaviors in the rat. The assay can be described thus: Formalin-induced pain test (formalin model), duration of pain behaviors. The class given is in vivo. How it is done:
Exemplary compounds of the invention were tested in the formalin-induced pain test reported by Dubuisson et al., Pain 1977 December; 4(2):161-74 (incorporated herein by reference in its entirety). Briefly, dilute formalin (50 μL of 3% formalin) was injected into the plantar surface of the hind paw of a rat. […] The individual responsible for counting the pain behaviors in a particular study was blinded to the treatment groups.
The initial phase (Phase I: 0-5 min) is thought to have a significant component that is dependent upon direct activation of afferent fibers by formalin and functional TRPA1 (McNamara et al., 2007).
Investigators studied oral administration of compounds of the invention at the doses presented in Table 3 on pain behaviors in the formalin model in the rat. Compounds were formulated as solutions in water with various solvents and excipients including dimethyl sulfoxide (DMSO), polyethylene glycol (15)-hydroxystearate (Solutol®, Sigma-Aldrich), caprylocaproyl macrogol-8 glyceride (Labrasol®, Sigma-Aldrich), polysorbate-80 (Tween®-80, Sigma-Aldrich), and polyoxyl 35 castor oil (Cremophor® EL, BASF Corp.); or suspensions in methylcellulose as indicated in Table 3. Animals were dosed orally with the vehicle, or compounds of the invention one hour prior to intraplantar formalin. […] A decrease over Vehicle indicates a positive result. P values, when indicated, indicate significance compared Vehicle.

[2] abbreviates: 1 mpk PO one hour prior to formalin, solution in 4% DMSO, 10% Solutol, 86% water.
Setting [3] is: 3 mpk PO one hour prior to formalin, solution in 4% DMSO, 10% Solutol, 86% water.
[4] abbreviates: 10 mpk PO one hour prior to formalin, solution in 4% DMSO, 10% Solutol, 86% water.
Setting [5] is: 30 mg/kg PO one hour prior to formalin, solution in 8% DMSO and 92% Labrasol.
The mark [6] stands for this setting: 1 mg/kg PO one hour prior to formalin, solution in 4% DMSO, 5% Tween-80, 20% Cremophor EL, 71% water.
[7] abbreviates: 3 mg/kg PO one hour prior to formalin, solution in 4% DMSO, 5% Tween-80, 20% Cremophor EL, 71% water.
The mark [8] stands for this setting: 10 mg/kg PO one hour prior to formalin, solution in 4% DMSO, 5% Tween-80, 20% Cremophor EL, 71% water.
[9] abbreviates: 30 mg/kg PO one hour prior to formalin, solution in 4% DMSO, 5% Tween-80, 20% Cremophor EL, 71% water.

pIC50: −log10 of the molar value.

Chain of human TRPA1 (O75762 whole entry, the tested form may be a part): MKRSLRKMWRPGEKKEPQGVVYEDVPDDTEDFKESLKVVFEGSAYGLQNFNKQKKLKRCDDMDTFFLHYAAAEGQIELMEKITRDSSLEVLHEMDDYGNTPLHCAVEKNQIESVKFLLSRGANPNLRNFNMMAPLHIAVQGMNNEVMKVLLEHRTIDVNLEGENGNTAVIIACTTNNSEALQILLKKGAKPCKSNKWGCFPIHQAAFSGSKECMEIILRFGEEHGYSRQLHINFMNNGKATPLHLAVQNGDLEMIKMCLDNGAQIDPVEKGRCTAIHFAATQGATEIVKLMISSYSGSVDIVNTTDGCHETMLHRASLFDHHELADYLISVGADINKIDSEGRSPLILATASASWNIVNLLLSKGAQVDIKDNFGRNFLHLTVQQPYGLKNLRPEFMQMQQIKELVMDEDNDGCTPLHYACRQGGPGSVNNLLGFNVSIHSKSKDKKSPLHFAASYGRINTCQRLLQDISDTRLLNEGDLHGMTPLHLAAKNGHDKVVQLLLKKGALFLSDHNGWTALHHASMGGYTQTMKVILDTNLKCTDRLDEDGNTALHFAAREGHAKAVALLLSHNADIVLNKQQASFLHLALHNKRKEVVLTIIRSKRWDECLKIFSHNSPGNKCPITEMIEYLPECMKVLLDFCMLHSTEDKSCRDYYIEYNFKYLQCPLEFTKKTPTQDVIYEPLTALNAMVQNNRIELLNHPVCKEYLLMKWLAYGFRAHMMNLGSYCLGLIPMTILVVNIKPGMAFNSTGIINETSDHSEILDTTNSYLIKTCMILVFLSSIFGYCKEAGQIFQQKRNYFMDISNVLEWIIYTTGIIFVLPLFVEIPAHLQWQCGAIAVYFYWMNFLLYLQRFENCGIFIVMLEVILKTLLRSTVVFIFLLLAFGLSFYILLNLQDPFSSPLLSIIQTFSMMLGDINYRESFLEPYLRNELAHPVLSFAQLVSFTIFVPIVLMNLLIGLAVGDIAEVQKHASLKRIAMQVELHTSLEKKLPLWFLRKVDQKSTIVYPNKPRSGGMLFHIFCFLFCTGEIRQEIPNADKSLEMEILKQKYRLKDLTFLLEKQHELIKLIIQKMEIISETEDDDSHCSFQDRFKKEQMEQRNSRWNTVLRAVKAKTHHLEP

Regarding `Cc1cc(Cn2c(=O)c3c(ncn3[C@@H](C)C(=O)Nc3cccc(-c4ccc(C(F)(F)F)nc4)n3)n(C)c2=O)no1` [Compound 7, (S)-2-(3-methyl-1-((5-methylisoxazol-3-yl)methyl)-2,6-dioxo-2,3-dihydro-1H-purin-7(6H)-yl)-N-(6′-(trifluoromethyl)-[2,3′-bipyridin]-6-yl)propanamide], the pIC50 (as a rule, the negative decadic logarithm of the IC50, by convention in mol/L) at human TRPA1 is 8.30. In addition, the “Duration (0-2 Minutes) Average” value stood at 82.38 s in assay [1] (setting [2]), 78.25 s in assay [1] (setting [3]) and 67.00 s in assay [1] (setting [4]). Further, the “Duration (0-5 Minutes) Average” value turned out to be 200.38 s in assay [1] (setting [2]), 173.75 s in assay [1] (setting [3]) and 170.50 s in assay [1] (setting [4]).
As to `Cc1cc(Cn2c(=O)c3c(ncn3[C@@H](C)C(=O)Nc3cccc(-c4cnc(C(F)(F)F)nc4)n3)n(C)c2=O)no1` [Compound 15, (S)-2-(3-methyl-1-((5-methylisoxazol-3-yl)methyl)-2,6-dioxo-2,3-dihydro-1H-purin-7(6H)-yl)-N-(6-(2-(trifluoromethyl)pyrimidin-5-yl)pyridin-2-yl)propanamide], in assay [1] (setting [5]), the “Duration (0-2 Minutes) Average” value stood at 76.00 s and the “Duration (0-5 Minutes) Average” value was 190.20 s.
In the case of `CCC(=O)Cn1c(=O)c2c(ncn2[C@@H](C)C(=O)Nc2cccc(-c3cnc(C)c(C(F)(F)F)c3)n2)n(C)c1=O` [Compound 135, (S)-2-(3-methyl-2,6-dioxo-1-(2-oxobutyl)-2,3-dihydro-1H-purin-7(6H)-yl)-N-(6′-methyl-5′-(trifluoromethyl)-[2,3′-bipyridin]-6-yl)propanamide], the pIC50 at human TRPA1 is 8.40. In addition, the figures for the “Duration (0-2 Minutes) Average” value in assay [1] (setting [6]), in assay [1] (setting [7]) and in assay [1] (setting [8]) were 91.1 s, 80.3 s and 74.3 s, respectively. The “Duration (0-5 Minutes) Average” value worked out at 153.3 s in assay [1] (setting [6]), 120.3 s in assay [1] (setting [7]) and 139.0 s in assay [1] (setting [8]).
Take `C[C@@H](C(=O)Nc1cncc(-c2cnc(N3CC4CC4C3)nc2)n1)n1cnc2c1c(=O)n(CC#N)c(=O)n2C` (stereo partly drawn) [Compound 144]: the pIC50 at human TRPA1 is 8.22. Moreover, in assay [1] (setting [8]), the “Duration (0-2 Minutes) Average” value came to 64.6 s and the “Duration (0-5 Minutes) Average” value is 181.3 s.
With `C[C@@H](C(=O)Nc1cccc(-c2cnc(N3CC4CC4C3)nc2)n1)n1cnc2c1c(=O)n(CC#N)c(=O)n2C` (stereo partly drawn) [Compound 149, (2S)—N-(6-(2-(3-azabicyclo[3.1.0]hexan-3-yl)pyrimidin-5-yl)pyridin-2-yl)-2-(1-(cyanomethyl)-3-methyl-2,6-dioxo-2,3-dihydro-1H-purin-7(6H)-yl)propanamide], the pIC50 at human TRPA1 is 8.70. In assay [1] (setting [9]), the “Duration (0-2 Minutes) Average” value was 41.9 s and the “Duration (0-5 Minutes) Average” value is 153.0 s.
For the compound `C[C@@H](C(=O)Nc1ccnc(-c2cnc(N3CC4CC4C3)nc2)n1)n1cnc2c1c(=O)n(CC#N)c(=O)n2C` (stereo partly drawn) [Compound 155, (2S)—N-(2′-(3-azabicyclo[3.1.0]hexan-3-yl)-2,5′-bipyrimidin-4-yl)-2-(1-(cyanomethyl)-3-methyl-2,6-dioxo-2,3-dihydro-1H-purin-7(6H)-yl)propanamide], the pIC50 at human TRPA1 was 8.30. In assay [1] (setting [8]), the “Duration (0-2 Minutes) Average” value is 59.4 s and the “Duration (0-5 Minutes) Average” value worked out at 182.5 s.
Regarding `Cc1nc(Cn2c(=O)c3c(ncn3[C@@H](C)C(=O)Nc3ccnc(-c4cnc(C)c(C(F)(F)F)c4)n3)n(C)c2=O)no1` [Compound 172, (S)-2-(3-methyl-1-((5-methyl-1,2,4-oxadiazol-3-yl)methyl)-2,6-dioxo-2,3-dihydro-1H-purin-7(6H)-yl)-N-(2-(6-methyl-5-(trifluoromethyl)pyridin-3-yl)pyrimidin-4-yl)propanamide], the pIC50 on human TRPA1 was 8.70. Further, the “Duration (0-2 Minutes) Average” value was found to be 88.6 s in assay [1] (setting [6]), 91.1 s in assay [1] (setting [7]) and 83.1 s in assay [1] (setting [8]). For the same compound, the “Duration (0-5 Minutes) Average” value in assay [1] (setting [6]) was determined as 151.0 s; in assay [1] (setting [7]), 149.0 s; in assay [1] (setting [8]), 151.6 s.
With `Cc1nc(Cn2c(=O)c3c(ncn3CC(=O)Nc3csc(-c4cnc(C(F)(F)F)c(C)c4)n3)n(C)c2=O)no1` [Compound 253, 2-(3-methyl-1-((5-methyl-1,2,4-oxadiazol-3-yl)methyl)-2,6-dioxo-2,3-dihydro-1H-purin-7(6H)-yl)-N-(2-(5-methyl-6-(trifluoromethyl)pyridin-3-yl)thiazol-4-yl)acetamide], the pIC50 on human TRPA1 is 7.70. Besides, the “Duration (0-2 Minutes) Average” value in assay [1] (setting [6]) is 79.3 s; in assay [1] (setting [7]), 78.8 s; in assay [1] (setting [8]), 76.4 s. For the same compound, the “Duration (0-5 Minutes) Average” value amounted to 126.4 s in assay [1] (setting [6]), 119.6 s in assay [1] (setting [7]) and 116.0 s in assay [1] (setting [8]).
`CC#CCn1c(=O)c2c(ncn2[C@@H](C)C(=O)Nc2csc(-c3cnc(N4CCC[C@H]4C(F)(F)F)nc3)n2)n(C)c1=O` [Compound 268, (S)-2-(1-(but-2-ynyl)-3-methyl-2,6-dioxo-2,3-dihydro-1H-purin-7(6H)-yl)-N-(2-(2-((S)-2-(trifluoromethyl)pyrrolidin-1-yl)pyrimidin-5-yl)thiazol-4-yl)propanamide]: the pIC50 at human TRPA1 is 9.00.
Same read-out and setting: then `COCC(=O)Cn1c(=O)c2c(ncn2[C@@H](C)C(=O)Nc2csc(-c3ccc(N4CC5C(C4)C5(F)F)nc3)n2)n(C)c1=O` (stereo partly drawn) [Compound 269, (2S)—N-(2-(6-(6,6-difluoro-3-azabicyclo[3.1.0]hexan-3-yl)pyridin-3-yl)thiazol-4-yl)-2-(1-(3-methoxy-2-oxopropyl)-3-methyl-2,6-dioxo-2,3-dihydro-1H-purin-7(6H)-yl)propanamide], with 8.40; and `CCC(=O)Cn1c(=O)c2c(ncn2[C@@H](C)C(=O)Nc2csc(-c3cnc(N4CC5CC5C4)cn3)n2)n(C)c1=O` (stereo partly drawn) [Compound 270, (2S)—N-(2-(5-(3-azabicyclo[3.1.0]hexan-3-yl)pyrazin-2-yl)thiazol-4-yl)-2-(3-methyl-2,6-dioxo-1-(2-oxobutyl)-2,3-dihydro-1H-purin-7(6H)-yl)propanamide], with 8.52; and `COCC(=O)Cn1c(=O)c2c(ncn2[C@@H](C)C(=O)Nc2cncc(-c3ccc(N4CC5CC5C4)nc3)n2)n(C)c1=O` (stereo partly drawn) [Compound 271, (2S)—N-(6-(6-(3-azabicyclo[3.1.0]hexan-3-yl)pyridin-3-yl)pyrazin-2-yl)-2-(1-(3-methoxy-2-oxopropyl)-3-methyl-2,6-dioxo-2,3-dihydro-1H-purin-7(6H)-yl)propanamide], with 8.30.
Take `COCC(=O)Cn1c(=O)c2c(ncn2[C@@H](C)C(=O)Nc2cccc(-c3cnc(N4CC5C(C4)C5(F)F)cn3)n2)n(C)c1=O` (stereo partly drawn) [Compound 272]: the pIC50 on human TRPA1 was 8.15.
For “(S)-2-(3-methyl-1-((3-methyl-1,2,4-oxadiazol-5-yl)methyl)-2,6-dioxo-2,3-dihydro-1H-purin-7(6H)-yl)-N-(5′-methyl-6′-(trifluoromethyl)-[2,3′-bipyridin]-6-yl)propanamide [Compound 134]”, the pIC50 on human TRPA1 was 8.52.
